PubChem BioAssay AID463206 (Broad Institute, 2010)
Calls of active or inactive are those of the source.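 The calls were made as follows: active = caspase luminescence falls with dose and the half-maximal concentration AC50 from the fitted curve is at or below a set limit; inconclusive = flat fit at 30 to 70% signal loss, or invalid fit; inactive = AC50 above the limit, or signal rises instead.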

Tested on: INS-1E cytokine-induced caspase-3/7, Caspase-Glo luminescence, 48 h
Assay: suppression of cytokine-driven beta-cell apoptosis – INS-1E rat cells, luminescence, orthogonal assay for beta-cell apoptosis protection project, dose response (AID 463206)

| SMILES | AC50 |
| --- | --- |
| COc1ccc(-c2cc3ccccc3oc2=O)cc1NC(=O)c1ccc([N+](=O)[O-])o1 | > 26 µM (inactive) |
| COc1cccc(C(=O)N/N=C(/c2ccccc2)c2ccccn2)c1 | > 26 µM (inactive) |
| CCn1cc(/C=C/c2cc[n+](C)cc2)c2ccccc21 | > 26 µM (inactive) |
| C=C(C)C(=O)N1CC2(CC(c3cccc(NC(=O)COc4ccc(Cl)cc4)c3)=NO2)C[C@@H]1C(N)=O (stereo partly drawn) | > 26 µM (inactive) |
| COc1ccc2cc3[n+](cc2c1OC)CCc1cc2c(cc1-3)OCO2 | > 26 µM (inactive) |
| COc1ccc(CNCCC(c2ccccc2)c2ccc3c(c2)OCO3)cc1 (stereo not drawn) | > 26 µM (inactive) |
| O=C(Nc1cc(Sc2ccccn2)cc([N+](=O)[O-])c1)c1cccc(F)c1 | > 26 µM (inactive) |
| O=C(Nc1ccc(Br)c(C(F)(F)F)c1)c1ccc(C(F)(F)F)cc1 | > 26 µM (inactive) |
| O=C(N/N=C(\c1ccccc1)c1ccccn1)c1ccccc1Cl | > 26 µM (inactive) |
| Cc1ccc(O)c(/C=N/NC(=O)c2[nH]ncc2Br)c1 | > 26 µM (inactive) |
| CC1=C/C(=N\OS(=O)(=O)c2ccccc2)C(C(C)C)=CC1=O | > 26 µM (inactive) |
| CCCCCCCCCCCCCCCC[N+](C)(C)C | > 26 µM (inactive) |
| COC(=O)C1=C(C)N(Cc2ccccc2)C(=NCc2cccc(C(F)(F)F)c2)N[C@H]1c1cccc(F)c1 | > 26 µM (inactive) |
| Cc1ccc2nc(NNC(=O)c3ccc(S(=O)(=O)N4CCc5ccccc5C4)cc3)sc2c1 | > 26 µM (inactive) |
| COC(=O)[C@H](CC(C)C)N(Cc1ccccc1)S(=O)(=O)N(Cc1ccc(OC)cc1)[C@@H](CC(C)C)C(=O)OC | > 26 µM (inactive) |
| CCn1nc(C)c(CNC(=O)c2ccc(OC3CCN(Cc4ccccn4)CC3)cc2)c1C | > 26 µM (inactive) |
| CCCCCCCCn1c(=O)c(C(=O)OC)c(N)c2ccccc21 | > 26 µM (inactive) |
| O=C(OCn1ncc(Br)c(Br)c1=O)c1ccccc1Cl | > 26 µM (inactive) |
| Cc1ccc2c(c1)S/C(=C/c1ccc[n+](CCO)c1)N2C | > 26 µM (inactive) |
| C/C(=N\NC(=O)c1c(C)nc2ccccn12)c1ccc(O)cc1O | > 26 µM (inactive) |
| C/C(=N\NC(=O)c1nnn(-c2nonc2N)c1CN(C)c1ccccc1)c1ccccc1O | > 26 µM (inactive) |
| COc1cc2sc(-c3ccccc3OC)c(-c3ccc(OCCN4CCCCC4)cc3)c2cc1OC | 16 µM |
| COc1ccc(/C=N/Nc2cc(C)nc3ccc(OC)cc23)c(OC)c1 | 10.7 µM |
| Cc1cc(C(=O)N/N=C/c2cc(N=Nc3ccccc3)ccc2O)n[nH]1 | > 26 µM (inactive) |
| COc1cc(C(=O)Oc2c(CN3CCOCC3)cc(Cl)c3cccnc23)cc(OC)c1OC | > 26 µM (inactive) |

| SMILES | AC50 |
| --- | --- |
| CCOC(=O)N1CCN(Cc2cc(Cl)c3cccnc3c2O)CC1 | > 26 µM (inactive) |
| Clc1ccc2nnnc(-c3ccccc3)c2c1 | > 26 µM (inactive) |
| CCCCCCc1cc2cc(-c3nnc(-c4ccccc4O)o3)c(=O)oc2cc1O | > 26 µM (inactive) |
| Cn1nc(CC(=O)Nc2ccc3c(c2)OCCO3)c2ccccc2c1=O | > 26 µM (inactive) |
| Cc1ccc(NC(=O)c2c(-c3c(F)cccc3Cl)noc2C)cc1F | > 12 µM (inactive) |
| CCn1c(/C=C/c2ccc([N+](=O)[O-])o2)nc2ccccc2c1=O | > 26 µM (inactive) |
| C/C(=N\NC(=O)c1cc(C)nc2ccccc12)c1ccccn1 | > 26 µM (inactive) |
| Nc1nonc1-n1nnc(C(=O)N/N=C/c2cc(Br)ccc2O)c1CSC1=NCCS1 | > 26 µM (inactive) |
| COc1ccc(/C=N/Nc2cc(C)nc(-n3nc(C)cc3C)n2)cc1 | > 26 µM (inactive) |
| CCCCCCCCNc1ncnc2ccccc12 | > 26 µM (inactive) |
| Cc1ccc2nc(-c3cccc(-c4cccc(Cl)c4)c3)c(NCc3ccccc3)n2c1 | > 26 µM (inactive) |
| CC1CCc2c(sc3nc(C4CC4)nc(N4CCN(C(=O)c5ccco5)CC4)c23)C1 (stereo not drawn) | > 26 µM (inactive) |
| CN1/C(=C\C(=O)c2ccco2)C(C)(C)c2ccccc21 | > 26 µM (inactive) |
| COc1cccc(/C=N/Nc2ncnc(Cl)c2N)c1O | > 26 µM (inactive) |
| CC(=O)NC(C)c1cc(Cl)c2cccnc2c1O (stereo not drawn) | > 26 µM (inactive) |
| CC#CC[N+](C)(C)CCCCCCCC | > 26 µM (inactive) |
| Oc1ccc(Nc2nc(N3CCCC3)c3ccccc3n2)cc1 | 8.57 µM |
| CCC(=O)NC(c1ccc(OC)cc1)c1cc(Cl)c2cccnc2c1O (stereo not drawn) | > 26 µM (inactive) |
| Cc1nc(NC(=O)C23CC4CC(CC(C4)C2)C3)sc1Cc1ccc2c(c1)OCO2 | > 26 µM (inactive) |
| Cc1cc(Cl)c(S(=O)(=O)N2CCN(c3ccc(F)cc3)CC2)cc1OCC(=O)NC1CCCCC1 | > 26 µM (inactive) |
| CCCCC(=O)NC(c1ccco1)c1cc(Cl)c2cccnc2c1O (stereo not drawn) | > 26 µM (inactive) |
| N#Cc1c(N2CCCCC2)nc(N2CCCCC2)c2c1CCN(Cc1ccccc1)C2 | > 26 µM (inactive) |
| CCOC(=O)c1c(C)[nH]c(C(=O)N/N=C\c2ccccc2O)c1C | > 26 µM (inactive) |
| Cc1ccc(N=Nc2ccc(O)c3ncccc23)cc1 | > 26 µM (inactive) |
| Nc1nc(-c2ccccn2)nc(N)c1Cc1c(F)cccc1Cl | > 26 µM (inactive) |

| SMILES | AC50 |
| --- | --- |
| Cc1ccc(Oc2nc(-c3ccccn3)nc3ccccc23)cc1 | > 26 µM (inactive) |
| Cc1nc(C)c(-c2csc(NCCc3ccccc3)n2)s1 | > 26 µM (inactive) |
| O=[N+]([O-])c1ccc(N2CCN(C(=S)Nc3ccc(F)cc3)CC2)cc1 | > 26 µM (inactive) |
| C/C(=N\Nc1nc(C)cc(-c2ccccc2)n1)c1ccc(O)cc1 | > 26 µM (inactive) |
| CC(=O)NC(c1cc(Cl)c2cccnc2c1O)C1CC1 (stereo not drawn) | > 26 µM (inactive) |
| COc1ccc(CC(=O)Nc2ccncc2Cl)cc1 | > 26 µM (inactive) |
| O=C(c1ccc(F)c(S(=O)(=O)N2CCOCC2)c1)N1CCN(c2ccc(F)cc2)CC1 | > 26 µM (inactive) |
| COc1ccc2nc(C)cc(N/N=C/c3ccccc3)c2c1 | 10.1 µM |
| Cc1ccc2nc(-c3ccc(NC(=O)c4cccnc4)cc3)oc2c1 | > 26 µM (inactive) |
| O=C(NCc1ccccn1)c1cc(-c2ccc(Cl)cc2)oc1C(F)(F)F | > 26 µM (inactive) |
| CCN(CC)c1ccc(/C=N/NC(=O)Cc2cccs2)c(O)c1 | > 26 µM (inactive) |
| C(C#CCCCCCCCCC[n+]1ccccc1)#CCCCCCCCCC[n+]1ccccc1 | > 26 µM (inactive) |
| CC1CC(C)CN(S(=O)(=O)c2ccc(C(=O)NCCCn3ccnc3)cc2)C1 (stereo not drawn) | > 26 µM (inactive) |
| CC(=O)Oc1c(I)cc(I)cc1C(=O)Nc1ccc(Cl)cc1 | > 26 µM (inactive) |
| CCOc1ccc2nc(NC(=O)c3ccccn3)sc2c1 | > 26 µM (inactive) |
| CCOC(=O)C(NCCc1ccc(F)cc1)(NC(=O)CC)C(F)(F)F (stereo not drawn) | > 26 µM (inactive) |
| CC(=O)Nc1ccc(C2=CC(=O)C[C@H](c3ccc4c(c3)OCO4)C2)cc1 | > 26 µM (inactive) |
| c1ccc(CCNc2ncnc3ccccc23)cc1 | > 26 µM (inactive) |
| CCCC(=O)NC(c1ccccc1Cl)c1ccc2cccnc2c1O (stereo not drawn) | > 26 µM (inactive) |
| CCn1c(=NC(=O)CCS(=O)(=O)c2ccccc2)sc2cccc(OC)c21 | > 12 µM (inactive) |
| Cc1ccc(C(C)C)c(OCc2nn(CC(=O)c3ccc(OC(F)F)cc3)c3[n+]2CCCCC3)c1 | > 26 µM (inactive) |
| CC1(C)CCN2CCC(C)(C)c3c(O)ccc1c32 | > 26 µM (inactive) |
| CN(C)c1nc(N/N=C/c2ccccc2O)nc(Nc2ccc(F)cc2)n1 | > 26 µM (inactive) |
| Cc1ccc(OCc2cc(C(=O)N(C)Cc3cc(C4CC4)n[nH]3)no2)cc1C | > 26 µM (inactive) |
| Cc1ccc(-c2c[n+](Cc3ccc(Cl)c(Cl)c3)c3n2CCC3)cc1 | > 26 µM (inactive) |

| SMILES | AC50 |
| --- | --- |
| O=C1C(=O)c2ccc(-c3ccccc3)cc2-c2ccccc21 | > 26 µM (inactive) |
| Cc1cc2c(NCCc3ccccc3)ncnc2s1 | > 26 µM (inactive) |
| COc1ccccc1NS(=O)(=O)c1cccc(NC(=O)c2[nH]c(C)c(C(C)=O)c2C)c1 | > 26 µM (inactive) |
| O=C(N/N=C/c1cc(Br)c(Br)s1)c1ccncc1 | > 26 µM (inactive) |
| Cc1ccc(S(=O)(=O)Nc2ccccc2C(=O)Nc2nc(-c3ccc(F)cc3)cs2)cc1 | > 26 µM (inactive) |
| COc1cccc(C(=O)Oc2c(Br)cc(Br)cc2/C=N/NC(=O)c2cc(C)[nH]n2)c1 | > 26 µM (inactive) |
| Cc1ccnc2c1ccc1c(C)ccnc12 | > 26 µM (inactive) |
| COc1ccc(CNCCc2c(C)[nH]c3ccc(OC(F)(F)F)cc23)c(OC)c1 | > 26 µM (inactive) |
| Oc1ccc(-[n+]2c(-c3ccccc3)cc(-c3ccccc3)cc2-c2ccccc2)cc1 | > 26 µM (inactive) |
| O=C(NCC1COc2ccccc2O1)c1cccc(S(=O)(=O)NCc2ccccc2)c1 (stereo not drawn) | > 12 µM (inactive) |
| Cn1nc(-c2ccccn2)nc2c(=O)n(C)c(=O)nc1-2 | > 26 µM (inactive) |
| CCCNC(=O)c1ccc2c(=O)c(O)c(-c3ccc(Cl)c([N+](=O)[O-])c3)[nH]c2c1 | 3.22 µM |
| CCc1ccc(C2CC(c3cccc(Cl)c3)n3nc(N)nc3N2)cc1 (stereo not drawn) | > 12 µM (inactive) |
| Cc1ccc(Nc2c(-c3ccccn3)nc3ccc(C)cn23)cc1 | > 26 µM (inactive) |
| CC(C)Oc1ccc(S(=O)(=O)N2CCCCC2)cc1NC(=O)CN1CCCC1c1cccs1 (stereo not drawn) | > 26 µM (inactive) |
| COc1ccccc1CNc1ncnc2sccc12 | > 26 µM (inactive) |
| O=C(Nc1ncnc2c1C(c1ccccc1)c1c(ccc3ccccc13)O2)c1ccccc1 (stereo not drawn) | > 26 µM (inactive) |
| Cc1cc(C(C)(C)C)cc(C)c1Cn1c2[n+](c3ccc(C(F)(F)F)cc31)CCCCC2 | > 26 µM (inactive) |
| COc1ccc(/C=C/c2cc(-c3ccc(C)cc3)o[n+]2C)cc1 | > 26 µM (inactive) |
| O=C(N/N=C/c1ccccc1O)c1cccc(C(F)(F)F)c1 | > 26 µM (inactive) |
| O=C(OCn1ncc(Br)c(Br)c1=O)c1ccc(F)cc1 | > 26 µM (inactive) |
| O=C(N=Nc1c(O)n(Cc2ccccc2)c2ccccc12)c1cc2ccccc2cc1O | > 26 µM (inactive) |
| CCCN(CCC)C(=O)c1cc([N+](=O)[O-])cc2c1-c1ccc([N+](=O)[O-])cc1C2=C(C#N)C#N | > 26 µM (inactive) |
